Data: US6927231B2, “Use of creatine for the amelioration of oxidative stress” (2458781 Canada Inc., priority 2001, dated 2005)
Where “and” joins values, the source holds several entries; their conditions need not be identical. Identical values can stand only once.

Legend:
[1] = Acid-soluble thiol concentration in the plasma during N-acetylcysteine ingestion; type: in vivo, human; conditions: healthy subject; NAC approximately 0.1-0.4 g per week, periods 1, 2, 5 and 6
Protocol: (§1) During the periods 1,2,5 and 6, the subject ingested small doses of N-acetylcysteine (NAC) (approximately 0.1-0.4 g per week) to adjust the acid-soluble thiol concentration in the plasma to an average value of about 15 μM, which corresponds approximately to the mean of healthy young subjects (see FIG. 1). In period 2, the subject ingested 3-4 times per week creatine at a dosis of approximately 3-4 g per week. In the period 4 and 6, the subject ingested creatine 6-7 times per week at a mean dose of approximately 6-8 g per week. Creatine was discontinued twice for one week each after the cystine level fell to a value of 40 and 41 μM, respectively. […] The P values illustrate the statistical significance for the differences between different treatment periods.

[2] = Plasma cystine concentration of a subject during creatine treatment periods; type: in vivo, human; conditions: healthy subject
Description: FIG. 3 illustrates the results of a study that is described in more detail in example 1. The ordinate (c) describes the plasma cystine concentration in μMol. The columns 1-6 describe the mean plasma cystine concentrations during 6 successive treatment periods of a subject as described in example 1.
as §1

CC(=O)N[C@@H](CS)C(=O)O [N-acetylcysteine]
acid-soluble thiol concentration in the plasma, average value [1]: about 15 μM

CN(CC(=O)O)C(=N)N [creatine]
cystine level at which creatine was discontinued ([2]; creatine discontinued twice for one week each after the level fell to this value): 40 µM and 41 µM | plasma cystine level ([2]; relatively small oral doses of creatine (approx. 3-8 g per week) during a total period of about 2.5 years, level corresponds to 20-35 year-old healthy subjects): approximately 50 μ
